From US20250170130A1, “MODULATORS OF MYC FAMILY PROTO-ONCOGENE PROTEIN” (Nalo Therapeutics, priority 2022, published 2025)
Read-outs that look alike come from different tables or passages of the source.

Experiments:
MycN = molecular target: T1, MycN (Homo sapiens, UniProt P04198); experiment: Degradation of MycN protein in SK-N-BE(2) cells, JESS/Western blot of lysates; type: cell-based; conditions: SKNBE2, 24 h; for Dmax at 0.5 µM: read-out: % Degradation of MycN (SKNBE2) 24 h, 0.5 μM; for Dmax at 1 µM: read-out: % Degradation of MycN (SKNBE2) 24 h, 1 μM; for Dmax at 3 µM: read-out: % Degradation of MycN (SKNBE2) 24 h, 3 μM; for Dmax at 6 µM: read-out: % Degradation of MycN (SKNBE2) 24 h, 6 μM
T1 construct: endogenous in cells; host or cells: SK-N-BE(2)
T1 sequence (P04198 1-464): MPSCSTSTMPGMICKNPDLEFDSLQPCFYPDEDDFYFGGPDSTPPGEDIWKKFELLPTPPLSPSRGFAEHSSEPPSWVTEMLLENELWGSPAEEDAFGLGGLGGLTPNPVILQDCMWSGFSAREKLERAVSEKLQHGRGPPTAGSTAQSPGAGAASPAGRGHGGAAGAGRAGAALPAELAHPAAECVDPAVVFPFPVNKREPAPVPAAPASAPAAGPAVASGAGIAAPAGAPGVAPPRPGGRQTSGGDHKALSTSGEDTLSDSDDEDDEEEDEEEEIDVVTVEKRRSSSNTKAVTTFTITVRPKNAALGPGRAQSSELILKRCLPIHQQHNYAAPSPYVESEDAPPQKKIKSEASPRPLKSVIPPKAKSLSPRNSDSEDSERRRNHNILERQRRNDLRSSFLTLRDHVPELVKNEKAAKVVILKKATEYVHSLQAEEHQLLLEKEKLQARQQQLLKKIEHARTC
In short: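 SK-N-BE(2) adherent cells (5E5 per well of a 6 well dish) were grown 24 hrs, then exposed to compounds diluted 1 in 20 in media, with DMSO controls, for 24 hrs. Cells were scraped, pelleted, PBS washed and lysed in RIPA buffer cocktail; after BCA protein quantitation, n-myc was detected by chemiluminescence on JESS/Western blot with tubulin and GAPDH loading controls read in the near infra red channel.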

MycC = molecular target: T2, MycC (Homo sapiens, UniProt P01106); experiment: Degradation of MycC protein in L363 cells, JESS/Western blot of lysates; type: cell-based; conditions: L-363, 24 h; for Dmax at 0.5 µM: read-out: % Degradation of MycC (L-363) 24 h, 0.5 μM; for Dmax at 1 µM: read-out: % Degradation of MycC (L-363) 24 h, 1 μM; for Dmax at 3 µM: read-out: % Degradation of MycC (L-363) 24 h, 3 μM; for Dmax at 6 µM: read-out: % Degradation of MycC (L-363) 24 h, 6 μM
T2 construct: endogenous in cells; host or cells: L363
T2 sequence (P01106 whole entry): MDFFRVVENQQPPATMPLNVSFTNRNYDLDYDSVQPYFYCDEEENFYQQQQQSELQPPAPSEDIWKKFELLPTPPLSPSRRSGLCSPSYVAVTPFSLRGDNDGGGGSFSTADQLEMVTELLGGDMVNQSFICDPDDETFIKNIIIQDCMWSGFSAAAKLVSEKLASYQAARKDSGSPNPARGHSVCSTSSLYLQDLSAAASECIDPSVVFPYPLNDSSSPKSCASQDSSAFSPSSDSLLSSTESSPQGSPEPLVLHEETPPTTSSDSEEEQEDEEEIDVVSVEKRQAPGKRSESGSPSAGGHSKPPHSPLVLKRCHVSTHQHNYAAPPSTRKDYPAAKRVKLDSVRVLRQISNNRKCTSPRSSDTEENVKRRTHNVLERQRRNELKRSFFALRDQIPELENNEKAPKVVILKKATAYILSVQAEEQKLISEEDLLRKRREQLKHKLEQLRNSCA
In short: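 L363 suspension cells were seeded at 1E6 cells per well and exposed to compound (stock 10 mM in DMSO) for 24 hrs. Cells were collected, spun down, rinsed with PBS, lysed in RIPA buffer cocktail on ice, clarified and kept at −80 degrees. Lysate protein was quantified by BCA, and c-myc was measured on JESS by chemiluminescence with tubulin and GAPDH loading controls in the NIR channel.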

Row | Compound | Dmax at 0.5 µM (MycN; SKNBE2 cells, 24 h, 0.5 μM) | Dmax at 1 µM (MycN; SKNBE2 cells, 24 h, 1 μM) | Dmax at 3 µM (MycN; SKNBE2 cells, 24 h, 3 μM) | Dmax at 6 µM (MycN; SKNBE2 cells, 24 h, 6 μM) | Dmax at 0.5 µM (MycC; L-363 cells, 24 h, 0.5 μM) | Dmax at 1 µM (MycC; L-363 cells, 24 h, 1 μM) | Dmax at 3 µM (MycC; L-363 cells, 24 h, 3 μM) | Dmax at 6 µM (MycC; L-363 cells, 24 h, 6 μM) | Dmax at 0.5 µM (MycN) | Dmax at 1 µM (MycN) | Dmax at 3 µM (MycN) | Dmax at 6 µM (MycN) | Dmax at 0.5 µM (MycC) | Dmax at 1 µM (MycC) | Dmax at 3 µM (MycC) | Dmax at 6 µM (MycC)
1 | O=C1c2ccccc2C(=O)N1CC12CC(CN(c3nccc(Nc4cc(C5CC5)[nH]n4)n3)C1)C2 [Compound 126, 2-[[3-[4-[(5-Cyclopropyl-1H-pyrazol-3-yl)amino]pyrimidin-2-yl]-3-azabicyclo[3.1.1]heptan-1-yl]methyl]isoindoline-1,3-dione] | 80 to 100% | 80 to 100% | 80 to 100% | 80 to 100% | 80 to 100% | 80 to 100% | 80 to 100% | 80 to 100% |  |  |  |  |  |  |  | 
2 | O=C1c2ccccc2C(=O)N1CC12CC(CN(c3nccc(Nc4cc(C5CCCC5)[nH]n4)n3)C1)C2 [Compound 127, 2-[[3-[4-[(5-Cyclopentyl-1H-pyrazol-3-yl)amino]pyrimidin-2-yl]-3-azabicyclo[3.1.1]heptan-1-yl]methyl]isoindoline-1,3-dione] |  |  |  |  |  |  |  |  | 50 to 79% | 80 to 100% | 80 to 100% | 80 to 100% | < 20% | 80 to 100% | 80 to 100% | 80 to 100%
3 | COC1CN(CC23CC(C2)N(c2nccc(Nc4cc(C5CCCC5)[nH]n4)n2)C3)C1 [Compound 177, N-(5-Cyclopentyl-1H-pyrazol-3-yl)-2-[4-[(3-methoxyazetidin-1-yl)methyl]-2-azabicyclo[2.1.1]hexan-2-yl]pyrimidin-4-amine] | 20 to 49% | < 20% | 50 to 79% | 50 to 79% | < 20% | 20 to 49% | 20 to 49% | 80 to 100% |  |  |  |  |  |  |  | 
4 | CNC[C@H]1CN(c2nccc(Nc3cc(C4CCCC4)[nH]n3)n2)C[C@H]1F [Compound 181] | < 20% | < 20% | 20 to 49% | 80 to 100% |  | < 20% |  | 80 to 100% |  |  |  |  |  |  |  | 
5 | CNCC12CC(C1)N(c1ncc(C)c(Nc3cc(C4CCCC4)[nH]n3)n1)C2 [Compound 182, N-(5-Cyclopentyl-1H-pyrazol-3-yl)-5-methyl-2-[4-(methylaminomethyl)-2-azabicyclo[2.1.1]hexan-2-yl]pyrimidin-4-amine] | 20 to 49% | 20 to 49% | 80 to 100% | 80 to 100% |  |  |  | 80 to 100% |  |  |  |  |  |  |  | 

Continued, in another order:

Row | Dmax at 0.5 µM (MycN; SKNBE2 cells, 24 h, 0.5 μM) | Dmax at 1 µM (MycN; SKNBE2 cells, 24 h, 1 μM) | Dmax at 3 µM (MycN; SKNBE2 cells, 24 h, 3 μM) | Dmax at 6 µM (MycN; SKNBE2 cells, 24 h, 6 μM) | Dmax at 0.5 µM (MycC; L-363 cells, 24 h, 0.5 μM) | Dmax at 1 µM (MycC; L-363 cells, 24 h, 1 μM) | Dmax at 3 µM (MycC; L-363 cells, 24 h, 3 μM) | Dmax at 6 µM (MycC; L-363 cells, 24 h, 6 μM) | Compound | Dmax at 0.5 µM (MycN) | Dmax at 1 µM (MycN) | Dmax at 3 µM (MycN) | Dmax at 6 µM (MycN) | Dmax at 0.5 µM (MycC) | Dmax at 1 µM (MycC) | Dmax at 3 µM (MycC) | Dmax at 6 µM (MycC)
6 | 20 to 49% | 50 to 79% | 80 to 100% | 80 to 100% |  |  | 80 to 100% | 80 to 100% | CNCC12CC(C1)N(c1nc3c(c(Nc4cc(C5CCCC5)[nH]n4)n1)CCC3)C2 [Compound 183, N-(5-Cyclopentyl-1H-pyrazol-3-yl)-2-[4-(methylaminomethyl)-2-azabicyclo[2.1.1]hexan-2-yl]-6,7-dihydro-5H-cyclopenta[d]pyrimidin-4-amine] |  |  |  |  |  |  |  | 
7 | 20 to 49% | 20 to 49% | 20 to 49% | 50 to 79% | < 20% | 20 to 49% | 20 to 49% | 50 to 79% | NC[C@H]1CN(c2nccc(Nc3cc(C4CCCC4)[nH]n3)n2)CCO1 [Compound 187, 2-[(2S)-2-(Aminomethyl)morpholin-4-yl]-N-(5-cyclopentyl-1H-pyrazol-3-yl)pyrimidin-4-amine] |  |  |  |  |  |  |  | 
8 | < 20% | 20 to 49% | 80 to 100% | 80 to 100% |  | < 20% | 50 to 79% | 80 to 100% | CNC[C@H]1CN(c2nccc(Nc3cc(C4CC4)[nH]n3)n2)C[C@H]1F [Compound 191, N-(5-Cyclopropyl-1H-pyrazol-3-yl)-2-[(3S,4S)-3-fluoro-4-(methylaminomethyl)pyrrolidin-1-yl]pyrimidin-4-amine] |  |  |  |  |  |  |  | 
